# Reference: publication PMC9856672, “SGC-CAMKK2-1: A Chemical Probe for CAMKK2” (Cells, 2023)
# Legend:
# [1] = target: CAMKK2 (Homo sapiens, UniProt Q96RR4); design: purified recombinant CAMKK2 (100 pM) was incubated in assay buffer; method as in earlier work; details: reported CAMKK2 inhibitors; ref 47 (Price et al.); cited from earlier work
# [2] = test system: p-AMPK(Thr172) in C4-2 cells; experiment: Western blot of p-AMPK(Thr172) in C4-2 prostate cancer cells; type: cell-based; details: C4-2, 24 h, 24 h treatment, three individual experiments, read-out: IC50 for decrease of p-AMPK(Thr172) normalized to total AMPK
# Method: C4-2 cells were plated in 6-well plates in IMEM medium containing 0.5% FBS. After 72 h, the cells were then treated with the compounds for 24 h before the media was aspirated and cells were washed twice in ice-cold PBS. Cells were lysed using RIPA buffer containing phosphatase and protease inhibitor cocktail while rotating for 30 min at 4 °C. In each lane, 30 μg/well of protein lysate was loaded into a 10% SDS-PAGE gel and run for 1 h and 30 min. Gels were then transferred overnight in a TRIS-glycine/methanol transfer buffer onto a PVDF membrane at 4 °C. Membranes were blocked, incubated with primary overnight at 4 °C, washed, incubated with secondary at room temperature for 1 h, washed, and then developed on an Azure Biosystems C-600 imager. Densitometry was performed using ImageJ. Total-AMPK was normalized to GAPDH and then p-AMPK was normalized to normalized total-AMPK. Normalized p-AMPK was used to calculate IC50 in GraphPad Prism 9.5.0. Primary antibodies used were from Cell Signaling (Danvers, MA, USA; Phospho-AMPKα (Thr172) (40H9) Rabbit mAb: Cat#: 2535; AMPKα (D5A2) Rabbit mAb Cat#: 5831), BD Bioscience (Franklin Lakes, NJ, USA; CAMKK2 mouse mAb Cat# 610544), and Sigma (St. Louis, MO, USA; GAPDH rabbit pAb: Cat# G9545). Secondary antibody (Goat Anti-Rabbit IgG (H + L)-HRP Conjugate; Cat#:1706515) was from Bio-Rad Laboratories (Hercules, CA, USA).
# In this experiment, IC50 was calculated via quantifying changes in p-AMPK(Thr172) normalized to total AMPK levels.
# [3] = Single dose IP pharmacokinetic study in mice; type: in vivo, CD-1 mice; details: mouse, 10 mg/kg IP, plasma at 0.5, 1, 3, 8 h
# Method: CD-1 mice with weights 23–25 g were purchased from Charles River Laboratories.
# The animal experiments were performed at Alliance Pharma (Malvern, PA, USA) in accordance with the guide for the care and use of laboratory animals. Alliance Pharma is accredited by the Association for Assessment and Accreditation of Laboratory Animal Care (AAALAC).
# The test compounds were dissolved in DMSO and then diluted to the appropriate concentration with the vehicle. For formulation we targeted the minimal amount of DMSO that could be used in combination with a formulation composed of 0.5% HPMC/0.2% Polysorbate 80. […] Blood was collected at t = 0.5, 1, 3, and 8 h and immediately spun for 3 min, the plasma was collected, and compound levels were quantified with HPLC/MS. The raw data are available in the Supplemental Information.
# With the probe molecule having favorable selectivity and potency in vitro and in a cellular context, we next wanted to determine its suitability for in vivo experiments. SGC-CAMKK2-1 (5) was progressed to a single dose mouse intraperitoneal (I.P) experiment.
Compound,pIC50 (CAMKK2) [1],IC50 [2],plasma concentration / in vivo PK (in words) [3]
CN(C)Cc1ccc(-c2cc3c(-c4ccc(C(N)=O)cc4)ccnc3[nH]2)cc1 [Compound 3],8.5,–,–
"O=C(O)c1ccc2c3c1cccc3c(=O)n1c3ccccc3nc21 [STO-609, reference compound]",–,10.7 µM,considerably higher plasma concentrations than SGC-CAMKK2-1
O=C(O)c1ccc(-c2ccnc(Nc3cccc(-c4ccccc4)c3)n2)cc1 [Compound 4],8.1,–,–
